Test results: ChEMBL document CHEMBL1201862, “PubChem BioAssay data set” (2004)
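All cell lines were grown in 96-well plates and treated with compound for 48 hours. GI50 is the concentration that inhibits growth by half.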 The source made the active and inactive calls. Cut-off read from the data, not from the text of the source: active = GI50 up to about 1.1 µM and inactive = higher.

What was measured:
Assay in all cases: growth of human tumour cells (NCI), 48 h
PC-3 = tested on: PC-3
HL-60 = tested on: HL-60
SK-MEL-5 = tested on: SK-MEL-5
A498 = tested on: A498
NCI-H226 = tested on: NCI-H226
MDA-N = tested on: MDA-N
COLO 205 = tested on: COLO 205
MCF7 = tested on: MCF7
SF-268 = tested on: SF-268
SNB-19 = tested on: SNB-19
LOX IMVI = tested on: LOX IMVI
NCI/ADR-RES = tested on: NCI/ADR-RES
HCT-116 = tested on: HCT-116
UO-31 = tested on: UO-31
HCT-15 = tested on: HCT-15
HOP-62 = tested on: HOP-62
Hs-578T = tested on: Hs-578T
SK-OV-3 = tested on: SK-OV-3
SNB-75 = tested on: SNB-75
OVCAR-5 = tested on: OVCAR-5

## COc1cc(C2C3=C(COC3=O)Oc3cc4c(cc32)OCO4)cc(OC)c1OC(C)=O (configuration not stated)
PC-3
  GI50: < 0.01 µM (active)
HL-60
  GI50: < 0.0104 µM (active)
SK-MEL-5
  GI50: < 0.01 µM (active)
A498
  GI50: 0.0116 µM (active)
NCI-H226
  GI50: < 0.0376 µM (active)
MDA-N
  GI50: < 0.01 µM (active)
COLO 205
  GI50: 0.027 µM (active)
MCF7
  GI50: < 0.012 µM (active)
SF-268
  GI50: 0.0608 µM (active)
SNB-19
  GI50: 0.024 µM (active)
LOX IMVI
  GI50: 0.0331 µM (active)
NCI/ADR-RES
  GI50: < 0.01 µM (active)
HCT-116
  GI50: 0.0207 µM (active)
UO-31
  GI50: < 0.0124 µM (active)
HCT-15
  GI50: 0.0226 µM
HOP-62
  GI50: 0.0157 µM (active)
Hs-578T
  GI50: 0.0101 µM (active)

## Oc1ccnc(SCc2ccc(Cl)cc2)n1
SK-OV-3
  GI50: > 100 µM (inactive)
PC-3
  GI50: > 100 µM (inactive)
SK-MEL-5
  GI50: > 100 µM (inactive)
A498
  GI50: > 100 µM (inactive)
MDA-N
  GI50: > 100 µM (inactive)
COLO 205
  GI50: > 100 µM (inactive)
MCF7
  GI50: > 100 µM (inactive)
SF-268
  GI50: > 100 µM (inactive)
SNB-19
  GI50: > 100 µM (inactive)
LOX IMVI
  GI50: > 100 µM (inactive)
NCI/ADR-RES
  GI50: > 100 µM (inactive)
HCT-116
  GI50: > 100 µM (inactive)
UO-31
  GI50: > 100 µM (inactive)
HCT-15
  GI50: > 100 µM
SNB-75
  GI50: > 100 µM (inactive)
HOP-62
  GI50: > 100 µM (inactive)
OVCAR-5
  GI50: > 100 µM (inactive)
Hs-578T
  GI50: > 100 µM (inactive)

## Cc1c(CN2CCOCC2)c(CN2CCOCC2)c(C)n1-c1ccc(Cl)cn1
SK-OV-3
  GI50: > 100 µM (inactive)
PC-3
  GI50: > 100 µM (inactive)
SK-MEL-5
  GI50: > 100 µM (inactive)
A498
  GI50: > 100 µM (inactive)
NCI-H226
  GI50: > 100 µM (inactive)
MDA-N
  GI50: > 100 µM (inactive)
COLO 205
  GI50: > 100 µM (inactive)
MCF7
  GI50: > 100 µM (inactive)
SF-268
  GI50: > 100 µM (inactive)
SNB-19
  GI50: > 100 µM (inactive)
NCI/ADR-RES
  GI50: > 100 µM (inactive)
HCT-116
  GI50: > 100 µM (inactive)
UO-31
  GI50: > 100 µM (inactive)
HCT-15
  GI50: > 100 µM
SNB-75
  GI50: > 100 µM (inactive)
HOP-62
  GI50: > 100 µM (inactive)
OVCAR-5
  GI50: > 100 µM (inactive)
Hs-578T
  GI50: > 100 µM (inactive)

## Cc1ccc(O)c(C2=CC3=NNC(=O)C3C(c3cccc(Cl)c3)C2)c1 (configuration not stated)
SK-OV-3
  GI50: 23.9 µM (inactive)
PC-3
  GI50: 40.6 µM (inactive)
HL-60
  GI50: 51.9 µM (inactive)
SK-MEL-5
  GI50: 32.1 µM (inactive)
A498
  GI50: 61.9 µM (inactive)
MDA-N
  GI50: 29.5 µM (inactive)
COLO 205
  GI50: 16 µM (inactive)
MCF7
  GI50: 17.7 µM (inactive)
SF-268
  GI50: 30.5 µM (inactive)
SNB-19
  GI50: 50.6 µM (inactive)
LOX IMVI
  GI50: 23 µM (inactive)
NCI/ADR-RES
  GI50: 50.4 µM (inactive)
HCT-116
  GI50: 30.9 µM (inactive)
UO-31
  GI50: 71.6 µM (inactive)
HCT-15
  GI50: 30.6 µM
SNB-75
  GI50: 18.5 µM (inactive)
HOP-62
  GI50: 58.9 µM (inactive)
OVCAR-5
  GI50: 51.6 µM (inactive)
Hs-578T
  GI50: 36.3 µM (inactive)

## CC[C@H]1OC([C@H](O)C/C=C\C#C[Si](C)(C)C)C/C=C\C[C@H]1O[Si](C)(C)C(C)(C)C (some centres not stated)
SK-OV-3
  GI50: > 100 µM (inactive)
PC-3
  GI50: > 100 µM (inactive)
SK-MEL-5
  GI50: > 100 µM (inactive)
A498
  GI50: > 100 µM (inactive)
NCI-H226
  GI50: > 100 µM (inactive)
MDA-N
  GI50: > 100 µM (inactive)
COLO 205
  GI50: > 100 µM (inactive)
MCF7
  GI50: 51.4 µM (inactive)
SF-268
  GI50: > 100 µM (inactive)
SNB-19
  GI50: > 100 µM (inactive)
LOX IMVI
  GI50: 19.4 µM (inactive)
NCI/ADR-RES
  GI50: > 100 µM (inactive)
HCT-116
  GI50: > 100 µM (inactive)
UO-31
  GI50: 54.5 µM (inactive)
HCT-15
  GI50: > 100 µM
SNB-75
  GI50: > 100 µM (inactive)
HOP-62
  GI50: > 100 µM (inactive)
OVCAR-5
  GI50: > 100 µM (inactive)
Hs-578T
  GI50: > 100 µM (inactive)

## O=C1/C(=C/c2ccccc2[N+](=O)[O-])N=C(c2ccccc2)N1C1Nc2cc3c(cc2S1)NC(N1C(=O)/C(=C/c2ccccc2[N+](=O)[O-])N=C1c1ccccc1)S3 (configuration not stated)
PC-3
  GI50: 32.9 µM (inactive)
HL-60
  GI50: 24 µM (inactive)
SK-MEL-5
  GI50: 42.1 µM (inactive)
A498
  GI50: 27.5 µM (inactive)
NCI-H226
  GI50: 31.5 µM (inactive)
MDA-N
  GI50: 36.8 µM (inactive)
MCF7
  GI50: 18.7 µM (inactive)
SF-268
  GI50: 47.3 µM (inactive)
LOX IMVI
  GI50: 35 µM (inactive)
NCI/ADR-RES
  GI50: 25.3 µM (inactive)
HCT-116
  GI50: 16 µM (inactive)
UO-31
  GI50: 24.1 µM (inactive)
HCT-15
  GI50: 32.8 µM
SNB-75
  GI50: > 100 µM (inactive)
HOP-62
  GI50: 89.5 µM (inactive)
OVCAR-5
  GI50: > 100 µM (inactive)
Hs-578T
  GI50: 50 µM (inactive)

## CCOC(=O)C1C(=O)CC1(C)C (configuration not stated)
SK-OV-3
  GI50: > 10 µM (inactive)
PC-3
  GI50: > 10 µM (inactive)
HL-60
  GI50: > 10 µM (inactive)
SK-MEL-5
  GI50: > 10 µM (inactive)
A498
  GI50: > 10 µM (inactive)
NCI-H226
  GI50: > 10 µM (inactive)
MDA-N
  GI50: > 10 µM (inactive)
COLO 205
  GI50: > 10 µM (inactive)
MCF7
  GI50: > 10 µM (inactive)
SF-268
  GI50: > 10 µM (inactive)
SNB-19
  GI50: > 10 µM (inactive)
LOX IMVI
  GI50: > 10 µM (inactive)
NCI/ADR-RES
  GI50: > 10 µM (inactive)
HCT-116
  GI50: > 10 µM (inactive)
UO-31
  GI50: > 10 µM (inactive)
HCT-15
  GI50: > 10 µM
HOP-62
  GI50: > 10 µM (inactive)
OVCAR-5
  GI50: > 10 µM (inactive)
Hs-578T
  GI50: > 10 µM (inactive)
